Reference: US6479435B1, “Diaryl ethers and processes for their preparation and herbicidal and desiccant compositions containing them” (ISK Americas Incorporated, priority 1997, dated 2002)

Assays:
Format in all cases: in vivo
[1] = tested on: ivyleaf morningglory (Ipomoea hederacea, IPOHE); assay: Post-emerge greenhouse herbicide test, phytotoxicity rating; settings: 14 days after application, scale 0-100
Method in brief: (§1)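 Plants at the 2-3 leaf stage, sown 8-21 days earlier, were track-sprayed post-emergence with compound in acetone plus 0.25% v/v non-ionic surfactant at 63-1000 g ai/ha (187 l/ha). Damage was rated at 14 days on a 0-100 scale (0 none, 100 all plants dead), for both crop injury and weed control.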

[2] = tested on: green foxtail (Setaria viridis, SETVI); assay: as above; settings: 14 days after application, scale 0-100
Method in brief: as §1

[3] = tested on: Johnsongrass (Sorghum halepense, SORHA); assay: as above; settings: 14 days after application, scale 0-100
Method in brief: as §1

[4] = tested on: large crabgrass (Digitaria sanguinalis, DIGSA); assay: as above; settings: 14 days after application, scale 0-100
Method in brief: as §1

[5] = tested on: barnyardgrass (Echinochloa crusgalli, ECHCG); assay: as above; settings: 14 days after application, scale 0-100
Method in brief: as §1

[6] = tested on: sicklepod (Cassia obtusifolia, CASOB); assay: as above; settings: 14 days after application, scale 0-100
Method in brief: as §1

[7] = tested on: redroot pigweed (Amaranthus retroflexus, AMARE); assay: as above; settings: 14 days after application, scale 0-100
Method in brief: as §1

[8] = tested on: lambsquarters (Chenopodium album, CHEAL); assay: as above; settings: 14 days after application, scale 0-100
Method in brief: as §1

[9] = tested on: velvetleaf (Abutilon theophrasti, ABUTH); assay: as above; settings: 14 days after application, scale 0-100
Method in brief: as §1

[10] = tested on: field corn (Zea mays L., var. Dekalb 535, CORN); assay: Post-emerge greenhouse test, crop damage rating; settings: 14 days after application, scale 0-100
Method in brief: as §1

[11] = tested on: upland rice (Oryza sp., var.Tebonnet, RICE); assay: Post-emerge greenhouse test, crop damage rating; settings: 14 days after application, scale 0-100
Method in brief: as §1

[12] = tested on: ivyleaf morningglory (Ipomoea hederacea, IPOHE); assay: Pre-emerge greenhouse herbicide test, phytotoxicity rating; settings: 14 days after application, rating scale 0-100
Method in brief: (§2)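 Seeds sown in sandy loam one day before track-sprayer application of acetone solutions at 125–1000 g ai/ha (187 l/ha), then surface-watered to incorporate and bottom-watered. Injury scored visually at 14 days on a 0–100 scale (0 no damage, 100 complete death).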

[13] = tested on: green foxtail (Setaria viridis, SETVI); assay: as above; settings: 14 days after application, rating scale 0-100
Method in brief: as §2

[14] = tested on: Johnsongrass (Sorghum halepense, SORHA); assay: as above; settings: 14 days after application, rating scale 0-100
Method in brief: as §2

[15] = tested on: large crabgrass (Digitaria sanguinalis, DIGSA); assay: as above; settings: 14 days after application, rating scale 0-100
Method in brief: as §2

[16] = tested on: barnyardgrass (Echinochloa crusgalli, ECHCG); assay: as above; settings: 14 days after application, rating scale 0-100
Method in brief: as §2

[17] = tested on: sicklepod (Cassia obtusifolia, CASOB); assay: as above; settings: 14 days after application, rating scale 0-100
Method in brief: as §2

[18] = tested on: redroot pigweed (Amaranthus retroflexus, AMARE); assay: as above; settings: 14 days after application, rating scale 0-100
Method in brief: as §2

[19] = tested on: lambsquarters (Chenopodium album, CHEAL); assay: as above; settings: 14 days after application, rating scale 0-100
Method in brief: as §2

[20] = tested on: velvetleaf (Abutilon theophrasti, ABUTH); assay: as above; settings: 14 days after application, rating scale 0-100
Method in brief: as §2

[21] = tested on: soybean (Glycine max L., var. Pella 86, SOY); assay: Post-emerge greenhouse test, crop damage rating; design: key to crop damage rating SOY: 0-100 scale: 0 = no damage, 100 = complete death of all plants; settings: 14 days after application, scale 0-100
Method in brief: as §1

[22] = tested on: common ragweed (Ambrosia artemisiifolia L., AMBEL); assay: Post-emerge greenhouse herbicide test, phytotoxicity rating; settings: 14 days after application, scale 0-100
From the text: A standard greenhouse herbicide activity screening system was used to evaluate the herbicidal efficacy and crop safety of these test compounds. Six broadleaf weed species including redroot pigweed (Amaranthus retroflexus, AMARE), velvetleaf (Abutilon theophrasti, ABUTH), sicklepod (Cassia obtusifolia, CASOB), ivyleaf morningglory (Ipomoea hederacea, IPOHE), lambsquarters (Chenopodium album, CHEAL) and common ragweed (Ambrosia artemisiifolia L., AMBEL) were used as test species. Four grass weed species including green foxtail (Setaria viridis, SETVI), barnyardgrass (Echinochloa crusgalli, ECHCG), Johnsongrass (Sorghum halepense, SORHA), and large crabgrass (Digitaria sanguinalis, DIGSA) were also used. In addition, three crop species, field corn (Zea mays L., var. Dekalb 535, CORN), soybean (Glycine max L., var. Pella 86, SOY), and upland rice (Oryza sp., var.Tebonnet, RICE) were included.
All test compounds were dissolved in acetone and applied to the test units in a volume of 187 l/ha. […] Plants were arranged on a shelf so that the top of the canopy (post-emerge) or top of the soil surface (pre-emerge) was 40-45 cm below the nozzle. Pressurized air was used to force the test solution through the nozzle as it was mechanically advanced (via electrically driven chain drive) over the top of all test plants/pots. This application simulates a typical commercial field herbicide application.
In the post-emerge test, a commercial non-ionic surfactant was also included (0.25% v/v) to enhance wetting of the leaf surfaces Qf target plants at rates ranging from 63 g ai/ha to 1000 g ai/ha. For post-emerge tests, seeds were planted 8-21 days prior to the test to allow emergence and good foliage development prior to application of the test substances. At the time of the post-emerge application, plants of all species were usually at the 2-3 leaf stage of development. Post-emerge test units were always bottom-watered.
At 14 days after application of the test materials, phytotoxicity ratings were recorded. A rating scale of 0-100 was used as previously described in Research Methods in Weed Science, 2nd edition, B. Truelove, Ed., Southern Weed Science Society, Auburn University, Auburn, Ala., 1977. Briefly, “0” corresponds to no damage and “100” corresponds to complete death of all plants in the test unit. This scale was used both to determine efficacy against weed species and damage to crop species. Herbicide activity data for various compounds of this invention, which are shown by compound number in Tables 1-9, are shown in Tables 13 and 14.

[23] = tested on: field corn (Zea mays L., var. Dekalb 535, CORN); assay: Pre-emerge greenhouse test, crop damage rating; settings: 14 days after application, rating scale 0-100
Method in brief: as §2

[24] = tested on: upland rice (Oryza sp., var.Tebonnet, RICE); assay: Pre-emerge greenhouse test, crop damage rating; settings: 14 days after application, rating scale 0-100
Method in brief: as §2

[25] = tested on: soybean (Glycine max L., var. Pella 86, SOY); assay: Pre-emerge greenhouse test, crop damage rating; design: key to SOY crop damage rating: 0 = no damage, 100 = complete death of all plants; settings: 14 days after application, rating scale 0-100
Method in brief: as §2

CCOC(=O)C(C)Oc1ccc(Oc2cc(-n3c(=O)n4n(c3=O)CCCC4)c(F)cc2Cl)c([N+](=O)[O-])c1 (centres unmarked) [Compound 8-41]
phytotoxicity rating IPOHE ([1]; rate 63 g ai/ha): 30 | phytotoxicity rating IPOHE ([1]; rate 250 g ai/ha): 100 | phytotoxicity rating SETVI ([2]; rate 63 g ai/ha): 0 | phytotoxicity rating SETVI ([2]; rate 250 g ai/ha): 0 | phytotoxicity rating SORHA ([3]; rate 63 g ai/ha): 0 | phytotoxicity rating SORHA ([3]; rate 250 g ai/ha): 0 | phytotoxicity rating DIGSA ([4]; rate 63 g ai/ha): 0 | phytotoxicity rating DIGSA ([4]; rate 250 g ai/ha): 0 | phytotoxicity rating ECHCG ([5]; rate 63 g ai/ha): 0 | phytotoxicity rating ECHCG ([5]; rate 250 g ai/ha): 0 | phytotoxicity rating CASOB ([6]; rate 63 g ai/ha): 30 | phytotoxicity rating CASOB ([6]; rate 250 g ai/ha): 100 | phytotoxicity rating AMARE ([7]; rate 63 g ai/ha): 40 | phytotoxicity rating AMARE ([7]; rate 250 g ai/ha): 40 | phytotoxicity rating CHEAL ([8]; rate 63 g ai/ha): 40 | phytotoxicity rating CHEAL ([8]; rate 250 g ai/ha): 50 | phytotoxicity rating ABUTH ([9]; rate 63 g ai/ha): 95 | phytotoxicity rating ABUTH ([9]; rate 250 g ai/ha): 100 | crop damage rating CORN ([10]; rate 63 g ai/ha): 0 | crop damage rating CORN ([10]; rate 250 g ai/ha): 0 | crop damage rating RICE ([11]; rate 63 g ai/ha): 0 | crop damage rating RICE ([11]; rate 250 g ai/ha): 0 | IPOHE phytotoxicity rating ([12]; Rate 125 g al/ha): 0 | IPOHE phytotoxicity rating ([12]; Rate 250 g al/ha): 0 | SETVI phytotoxicity rating ([13]; Rate 125 g al/ha): 10 | SETVI phytotoxicity rating ([13]; Rate 250 g al/ha): 50 | SORHA phytotoxicity rating ([14]; Rate 125 g al/ha): 0 | SORHA phytotoxicity rating ([14]; Rate 250 g al/ha): 0 | DIGSA phytotoxicity rating ([15]; Rate 125 g al/ha): 0 | DIGSA phytotoxicity rating ([15]; Rate 250 g al/ha): 0 | ECHCG phytotoxicity rating ([16]; Rate 125 g al/ha): 0 | ECHCG phytotoxicity rating ([16]; Rate 250 g al/ha): 0 | CASOB phytotoxicity rating ([17]; Rate 125 g al/ha): 0 | CASOB phytotoxicity rating ([17]; Rate 250 g al/ha): 0 | AMARE phytotoxicity rating ([18]; Rate 125 g al/ha): 80 | AMARE phytotoxicity rating ([18]; Rate 250 g al/ha): 100 | CHEAL phytotoxicity rating ([19]; Rate 125 g al/ha): 70 | CHEAL phytotoxicity rating ([19]; Rate 250 g al/ha): 90 | ABUTH phytotoxicity rating ([20]; Rate 125 g al/ha): 0 | ABUTH phytotoxicity rating ([20]; Rate 250 g al/ha): 70 | crop damage rating SOY ([21]; rate 63 g ai/ha): 30 | crop damage rating SOY ([21]; rate 250 g ai/ha): 60 | phytotoxicity rating AMBEL ([22]; rate 63 g ai/ha): 00 | phytotoxicity rating AMBEL ([22]; rate 250 g ai/ha): 30 | CORN crop damage rating ([23]; Rate 125 g al/ha): 0 | CORN crop damage rating ([23]; Rate 250 g al/ha): 0 | RICE crop damage rating ([24]; Rate 125 g al/ha): 0 | RICE crop damage rating ([24]; Rate 250 g al/ha): 0 | SOY crop damage rating ([25]; Rate 125 g al/ha): 0 | SOY crop damage rating ([25]; Rate 250 g al/ha): 0
